Values after ≈ are worked out from the molar mass of the structure shown.
How the values were obtained:
Assay in all cases: Agar dilution MIC in DST agar (Ericsson and Sherris)
Format in all cases: cell-based
[1] = test system: Pseudomonas aeruginosa K 799/61; conditions: for MIC Pseu. 799: in vitro, agar dilution, DST agar; for MIC: Pseudomonas aeruginosa, K799/61, read-out: MIC Pseu. 799
From the text: (§1) Die antibiotische Aktivität der Testverbindungen in vitro wurde durch die Agarverdünnungsmethode nach Ericsson, H.M., und Sherris, S.C., 1971, Acta Path. Microb. Scand. Section B, Suppl. No. 217, Bd. 1-90, in DST Agara ermittelt. Die gefundenen, das Wachstum der Testorganismen noch hemmenden Minimalkonzentrationen (MIC = minimum inhibiting concentrations) werden in Mikrogramm pro Milliliter (µg/ml) für die geprüften Verbindungen in der Tabelle 1 angegeben.

Proteus morganii 1518 = conditions: for MIC Prot. 1518: in vitro; for MIC: Morganella morganii, 1518, in vitro, read-out: MIC Prot. 1518
From the text: as §1

Escherichia coli 205 = conditions: for MIC Esch. 205: in vitro; for MIC: Escherichia coli, 205, in vitro, read-out: MIC Esch. 205
From the text: as §1

[2] = test system: Staphylococcus aureus 10B; conditions: in vitro; for MIC: Staphylococcus aureus, 10B, read-out: MIC Staph. 10B
From the text: as §1

[3] = test system: Staphylococcus aureus 2999; conditions: for MIC Staph. 2999: in vitro; for MIC: Staphylococcus aureus, 2999, in vitro, read-out: MIC Staph. 2999
From the text: as §1

[4] = test system: Salmonella Typhimurium 277; conditions: in vitro; for MIC: Salmonella enterica, TYPHIMURIUM, read-out: MIC Salm. 277
From the text: as §1

Proteus morganii 2359 = conditions: for MIC Prot. 2359: in vitro; for MIC: Morganella morganii, 2359, in vitro, read-out: MIC Prot. 2359
From the text: as §1

Escherichia coli 2018 = conditions: for MIC Esch. 2018: in vitro; for MIC: Escherichia coli, 2018, in vitro, read-out: MIC Esch. 2018
From the text: as §1

Compound	MIC Pseu. 799 [1] [µg/mL]	MIC Prot. 1518 (Proteus morganii 1518) [µg/mL]	MIC Esch. 205 (Escherichia coli 205) [µg/mL]	MIC Staph. 10B [2] [µg/mL]	MIC Staph. 2999 [3] [µg/mL]	MIC Salm. 277 [4] [µg/mL]	MIC Prot. 2359 (Proteus morganii 2359) [µg/mL]	MIC Esch. 2018 (Escherichia coli 2018) [µg/mL]	MIC [1] [µg/mL]	MIC (Proteus morganii 1518) [µg/mL]	MIC (Escherichia coli 205) [µg/mL]	MIC [2] [µg/mL]	MIC [3] [µg/mL]	MIC [4] [µg/mL]	MIC (Proteus morganii 2359) [µg/mL]	MIC (Escherichia coli 2018) [µg/mL]
4-[4-(2-Methoxyethyl)-piperazinyl]-imidazolo[4,5-c]rifamycin SV [Verbindung 63]	32	8	16	0.01	0.01	32	8	8								
4-(4-Butylpiperazinyl)-imidazolo[4,5-c]rifamycin SV [Verbindung 33]	32	4	8	0.001	0.001	32	4	2								
C=CCCN1CCN(c2nc3c([nH]2)c2c(O)c4c(O)c(C)c5c(c43)C(=O)[C@@](C)(O/C=C/[C@H](OC)[C@@H](C)[C@@H](OC(C)=O)[C@H](C)[C@H](O)[C@H](C)[C@@H](O)[C@@H](C)/C=C/C=C(/C)C(=O)N2)O5)CC1 [Verbindung 45, 4-[4-(3-Butenyl)-piperazinyl]-imidazolo[4,5-c]rifamycin SV]									32 (≈ 37.2 µM)	8 (≈ 9.3 µM)	8 (≈ 9.3 µM)	0.01 (≈ 0.0116 µM)	0.005 (≈ 0.00581 µM)	32 (≈ 37.2 µM)	8 (≈ 9.3 µM)	1 (≈ 1.16 µM)
CO[C@H]1/C=C/O[C@@]2(C)Oc3c(C)c(O)c4c(O)c(c5nc(N6CCN(CC7CCCC7)CC6)[nH]c5c4c3C2=O)NC(=O)/C(C)=C\C=C\[C@H](C)[C@H](O)[C@@H](C)[C@@H](O)[C@@H](C)[C@H](OC(C)=O)[C@@H]1C [Verbindung 55, 4-(4-Cyclopentylmethylpiperazinyl)-imidazolo[4,5-c]-rifamycin SV]									32 (≈ 36 µM)	2 (≈ 2.25 µM)	8 (≈ 9.01 µM)	0.01 (≈ 0.0113 µM)	0.001 (≈ 0.00113 µM)	32 (≈ 36 µM)	2 (≈ 2.25 µM)	1 (≈ 1.13 µM)
CC=C(CC)CN1CCN(c2nc3c([nH]2)c2c(O)c4c(O)c(C)c5c(c43)C(=O)[C@@](C)(O/C=C/[C@H](OC)[C@@H](C)[C@@H](OC(C)=O)[C@H](C)[C@H](O)[C@H](C)[C@@H](O)[C@@H](C)/C=C/C=C(/C)C(=O)N2)O5)CC1 [Verbindung 47, 4-[4-(2-Ethyl-2-butenyl)-piperazinyl]-imidazolo[4,5-c]-rifamycin SV]									32 (≈ 36 µM)	4 (≈ 4.5 µM)	8 (≈ 9.01 µM)	0.005 (≈ 0.00563 µM)	0.005 (≈ 0.00563 µM)	16 (≈ 18 µM)	4 (≈ 4.5 µM)	4 (≈ 4.5 µM)
CCCN(CC1CC1)c1nc2c3c(O)c4c(O)c(C)c5c(c4c2[nH]1)C(=O)C(C)(OC=CC(OC)C(C)C(OC(C)=O)C(C)C(O)C(C)C(O)C(C)C=CC=C(C)C(=O)N3)O5 (centres unmarked) [Verbindung 11, 4-(N-Cyclopropylmethyl-N-propylamino)-imidazolo[4,5-c]rifamycin SV]									8 (≈ 9.6 µM)	2 (≈ 2.4 µM)	8 (≈ 9.6 µM)	0.01 (≈ 0.012 µM)	0.01 (≈ 0.012 µM)	32 (≈ 38.4 µM)	8 (≈ 9.6 µM)	8 (≈ 9.6 µM)
4-(4-Isobutyrylpiperazinyl)-imidazolo[4,5-c]rifamycin SV [Verbindung 70]	128	32	32	0.02	0.02	128	32	32								
CO[C@H]1/C=C/O[C@@]2(C)Oc3c(C)c(O)c4c(O)c(c5nc(N6CCN(c7cccc(C(F)(F)F)c7)CC6)[nH]c5c4c3C2=O)NC(=O)/C(C)=C\C=C\[C@H](C)[C@H](O)[C@@H](C)[C@@H](O)[C@@H](C)[C@H](OC(C)=O)[C@@H]1C [Verbindung 53, 4-[4-(3-Trifluormethylphenyl)-piperazinyl]-imidazolo-[4,5-c]rifamycin SV]									32 (≈ 33.7 µM)	2 (≈ 2.11 µM)	8 (≈ 8.42 µM)	0.01 (≈ 0.0105 µM)	0.01 (≈ 0.0105 µM)	32 (≈ 33.7 µM)	8 (≈ 8.42 µM)	8 (≈ 8.42 µM)
4-[4-(2,2-Diethoxyethyl)-piperazinyl]-imidazolo[4,5-c]-rifamycin SV [Verbindung 66]	32	16	16	0.01	0.01	128	16	16								
4-(3-Diethylaminocarbonyl-1-piperidyl)-imidazolo[4,5-c]-rifamycin SV [Verbindung 26]	16	16	16	0.05	0.01	84	16	32								
COCCN(CCOC)c1nc2c([nH]1)c1c(O)c3c(O)c(C)c4c(c32)C(=O)[C@@](C)(O/C=C/[C@H](OC)[C@@H](C)[C@@H](OC(C)=O)[C@H](C)[C@H](O)[C@H](C)[C@@H](O)[C@@H](C)/C=C/C=C(/C)C(=O)N1)O4 [Verbindung 16, 4-[N-Di-(2-methoxyethyl)-amino]-imidazolo[4,5-c]rifamycin SV]									8 (≈ 9.38 µM)	2 (≈ 2.34 µM)	8 (≈ 9.38 µM)	0.01 (≈ 0.0117 µM)	0.01 (≈ 0.0117 µM)	32 (≈ 37.5 µM)	4 (≈ 4.69 µM)	8 (≈ 9.38 µM)
4-[4-(1-Methyl-2-dimethylaminoethyl)-piperazinyl]-imidazolo[4,5-c]rifamycin SV [Verbindung 74]	128	32	128	0.5	0.5	128	32	32								
CCCN(CCC)c1nc2c3c(O)c4c(O)c(C)c5c(c4c2[nH]1)C(=O)C(C)(OC=CC(OC)C(C)C(OC(C)=O)C(C)C(O)C(C)C(O)C(C)C=CC=C(C)C(=O)N3)O5 (centres unmarked) [Verbindung 7, 4-Dipropylamino-imidazolo[4,5-c]rifamycin SV]									8 (≈ 9.74 µM)	8 (≈ 9.74 µM)	8 (≈ 9.74 µM)	0.005 (≈ 0.00609 µM)	0.005 (≈ 0.00609 µM)	16 (≈ 19.5 µM)	8 (≈ 9.74 µM)	8 (≈ 9.74 µM)
C#CCN1CCN(c2nc3c([nH]2)c2c(O)c4c(O)c(C)c5c(c43)C(=O)[C@@](C)(O/C=C/[C@H](OC)[C@@H](C)[C@@H](OC(C)=O)[C@H](C)[C@H](O)[C@H](C)[C@@H](O)[C@@H](C)/C=C/C=C(/C)C(=O)N2)O5)CC1 [Verbindung 49, 4-(4-Propargylpiperazinyl)-imidazolo[4,5-c]rifamycin SV]									8 (≈ 9.48 µM)	8 (≈ 9.48 µM)	8 (≈ 9.48 µM)	0.001 (≈ 0.00118 µM)	0.001 (≈ 0.00118 µM)	32 (≈ 37.9 µM)	8 (≈ 9.48 µM)	32 (≈ 37.9 µM)
CCN(CCO)c1nc2c([nH]1)c1c(O)c3c(O)c(C)c4c(c32)C(=O)[C@@](C)(O/C=C/[C@H](OC)[C@@H](C)[C@@H](OC(C)=O)[C@H](C)[C@H](O)[C@H](C)[C@@H](O)[C@@H](C)/C=C/C=C(/C)C(=O)N1)O4 [Verbindung 14, 4-[N-Ethyl-N-(2-hydroxyethyl)-amino]-imidazolo[4,5-c]rifamycin SV]									16 (≈ 19.8 µM)	16 (≈ 19.8 µM)	8 (≈ 9.89 µM)	0.05 (≈ 0.0618 µM)	0.01 (≈ 0.0124 µM)	32 (≈ 39.6 µM)	16 (≈ 19.8 µM)	16 (≈ 19.8 µM)
CO[C@H]1/C=C/O[C@@]2(C)Oc3c(C)c(O)c4c(O)c(c5[nH]c(N6CCN(CC(C)=C(C)C)CC6)nc5c4c3C2=O)NC(=O)/C(C)=C\C=C\[C@H](C)[C@H](O)[C@@H](C)[C@@H](O)[C@@H](C)[C@H](OC(C)=O)[C@@H]1C [Verbindung 48]									32 (≈ 36 µM)	8 (≈ 9.01 µM)	32 (≈ 36 µM)	0.001 (≈ 0.00113 µM)	0.001 (≈ 0.00113 µM)	32 (≈ 36 µM)	8 (≈ 9.01 µM)	8 (≈ 9.01 µM)
CO[C@H]1/C=C/O[C@@]2(C)Oc3c(C)c(O)c4c(O)c(c5[nH]c(N6CCN(CCC(C)C)CC6)nc5c4c3C2=O)NC(=O)/C(C)=C\C=C\[C@H](C)[C@H](O)[C@@H](C)[C@@H](O)[C@@H](C)[C@H](OC(C)=O)[C@@H]1C [Verbindung 40, 4-[4-(3-Methylbutyl)piperazinyl]-imidazolo[4,5-c]rifamycin SV]									16 (≈ 18.3 µM)	8 (≈ 9.13 µM)	8 (≈ 9.13 µM)	0.005 (≈ 0.00571 µM)	0.005 (≈ 0.00571 µM)	32 (≈ 36.5 µM)	8 (≈ 9.13 µM)	8 (≈ 9.13 µM)
4-[4-(2-Methyl-3-phenyl-propyl)-piperazinyl]-imidazolo- [4,5-c]rifamycin SV [Verbindung 58]	16	16	16	0.005	0.005	32	16									
